Source: US5244917A, “Substituted naphthofurans as anti-inflammatory agents” (The DuPont Merck Pharmaceutical Company, priority 1992, dated 1993)

Experiments:
A23187-induced ear edema = assay: A23187 Ear Edema Model (murine ear edema protocol); assay type: in vivo, mouse (male CF-1); conditions: 100 μg/ear topical in acetone; A23187 10 μg/ear; 6 h; 6 mm punch biopsy weight
Procedure: To measure anti-inflammatory activities of the investigational compounds the following standard murine ear edema protocol was used. Edema was induced by the calcium ionophore, A23187 (10 μg/ear) [Marks, F., Furstenberger, G., Kownatzki, E., Prostaglandin E Mediated Stimulation of Mouse Epidermis in vivo by Divalent Cation Ionophore A23187 and by Tumor Promotor TPA, Cancer Res., 41, 696-702 (1981)]. Male CF-1 (Charles River) 18-20 grams were used. Investigational compounds (in acetone at 100 μg/ear) were applied to one ear just prior to application of the inflammagen (A23187). Six hours after A23187 application, edema was determined by comparing the weights of 6 mm punch biopsies from control (solvent) and inflammagen-treated ears. Percent inhibition was calculated using standard equations.

Platelet phospholipase C = assay: Platelet Phospholipase C Assay; assay type: biochemical; conditions: 100,000×g supernatant extract of platelet cells; 3H phosphatidylinositol substrate; mantissa only, the power of ten is printed apart; read-out: PLC IC50
Procedure: Platelet phospholipase C was measured using a 100,000×g supernatant extract of platelet cells as the enzyme preparation. The assay mixture consisted of (in final concentrations): ^3 H myoinositol phosphatidylinositol, ([…], 0.1Ci), CaCl2 (5 mM), Tris acetate buffer (60 mM, pH 4.5-7.5), sodium deoxycholate (2 mg/ml), platelet supernatant protein heated at 100° C. for 5 min (1 mg/ml), all in a total volume of […].
The assay was performed according to the method of Rittenhouse [Rittenhouse, S., Preparation of Selectively Labeled Phosphoinositol and Assay of Phosphoinositol-specific Phospholipase C in Methods in Enzymology, Lands, W. and Smith, W., eds., 86, 3-11 (1982)]. The hydrolysis of substrate to water soluble product was calculated on the basis of the specific activity of the substrate. The activity of the compounds was expressed as the percent inhibition of control (no compound) PLC hydrolysis. […] Arachidonic acid is the precursor of inflammagens such as leukotrienes and prostaglandins which are involved in the mediation of the inflammatory process.

SMILES | A23187 % inhibition (A23187-induced ear edema) [%] | IC50 (Platelet phospholipase C) [µM]
N#Cc1c(N)oc2c1c(Cc1ccccc1)c(O)c1ccccc12 [Example 1, 2-Amino-4-benzyl-3-cyano-5-hydroxynaphtho[1,2-b]furan] | 83 | 15
N#Cc1c(N)oc2c1c(Cc1ccccc1F)c(O)c1ccccc12 [Example 2, 2-amino-4-(2-fluoro)benzyl-3-cyano-5-hydroxynaphtho[1,2-b]furan] | 71 | 26
N#Cc1c(N)oc2c1c(Cc1ccc(F)cc1)c(O)c1ccccc12 [Example 4, 2-amino-4-(4-fluoro)benzyl-3-cyano-5-hydroxynaphtho[1,2-b]furan] | 58 | 120
COc1ccc2c(c1)c(O)c(Cc1ccccc1)c1c(C#N)c(N)oc12 [Example 11, 2-amino-4-benzyl-3-cyano-5-hydroxy-7-methoxynaphtho[1,2-b]furan] | 82 | 190
COc1ccc2c(O)c(Cc3ccccc3)c3c(C#N)c(N)oc3c2c1 [Example 12, 2-amino-4-benzyl-3-cyano-5-hydroxy-8-methoxynaphtho[1,2-b]furan] | – | 55
COc1ccc2c(O)c(Cc3ccccc3F)c3c(C#N)c(N)oc3c2c1 [Example 16, 2-amino-4-(2-fluoro)benzyl-3-cyano-5-hydroxy-8-methoxynaphtho[1,2-b]furan] | – | 56
